# Columns and labels:
# hAR = target: T1, hAR (Homo sapiens, UniProt P10275); assay: APRn selectivity: transactivation in HEK293T cells transiently expressing hAR; type: cell-based; settings: for agonist efficacy towards hAR (in words): HEK293T, FIG. 11
# T1 construct: expressed in transfected cells; host or cells: HEK 293T
# T1 sequence (P10275 1-920): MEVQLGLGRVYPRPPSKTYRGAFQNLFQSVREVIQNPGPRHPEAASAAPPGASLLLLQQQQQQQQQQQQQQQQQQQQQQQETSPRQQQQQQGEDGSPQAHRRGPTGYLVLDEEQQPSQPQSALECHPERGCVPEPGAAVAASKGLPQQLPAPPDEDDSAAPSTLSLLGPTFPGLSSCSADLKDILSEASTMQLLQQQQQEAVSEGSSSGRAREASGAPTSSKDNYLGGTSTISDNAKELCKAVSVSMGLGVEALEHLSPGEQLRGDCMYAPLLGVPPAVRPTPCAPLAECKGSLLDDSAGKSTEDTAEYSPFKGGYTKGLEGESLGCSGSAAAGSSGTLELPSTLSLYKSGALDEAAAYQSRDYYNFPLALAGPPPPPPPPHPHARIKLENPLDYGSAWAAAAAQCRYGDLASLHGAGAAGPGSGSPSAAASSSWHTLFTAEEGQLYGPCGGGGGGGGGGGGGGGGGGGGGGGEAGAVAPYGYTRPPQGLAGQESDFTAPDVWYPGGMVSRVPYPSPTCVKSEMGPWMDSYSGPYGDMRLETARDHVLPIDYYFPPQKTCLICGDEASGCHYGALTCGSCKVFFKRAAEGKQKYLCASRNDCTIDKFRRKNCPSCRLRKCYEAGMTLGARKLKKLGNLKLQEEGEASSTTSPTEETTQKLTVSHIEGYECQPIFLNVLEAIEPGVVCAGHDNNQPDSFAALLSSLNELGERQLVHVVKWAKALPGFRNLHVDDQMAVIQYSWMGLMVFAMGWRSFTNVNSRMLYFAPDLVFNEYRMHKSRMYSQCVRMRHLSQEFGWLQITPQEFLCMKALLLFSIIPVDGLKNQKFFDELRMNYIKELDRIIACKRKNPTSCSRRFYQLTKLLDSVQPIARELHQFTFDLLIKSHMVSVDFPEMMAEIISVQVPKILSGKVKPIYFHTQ
# Protocol: (§1) Measurement of the APRn Selectivity in HEK 293T.
# (§2) The HEK-293T cells were cultured and transfected according to the method described above for the PR transactivation assays. The expression vectors pcDNA-hAR, kindly provided by G. A. Coetzee, pchGR (Hellal-Levy, C et al. FEBS Lett 1999, 464, 9), and pchMR (Fagart, J. et al. EMBO J. 1998, 17, 3317) were used for studying the ability of APRn to activate or inactivate the AR, GR and MR, respectively. For each transfection assays, 2 μg of the expression vector was used together with 7 μg of the GRE2-Luc reporter vector. Dihydrotestosterone (DHT), dexamethasone (Dex) and Aldosterone (Aldo) were selected as AR, GR and MR ligands, respectively. They were used at the concentration of 10^−9 M. The APRn agonist and antagonist efficacy for AR, GR and MR were measured as described above for PR. The results are the mean±SEM of three independent experiments.
# (§3) Transfection assays were performed in HEK 293T cells by using expression vectors for the hAR, hGR and hMR and the GRE2-Luc reporter used for the PR transactivation assays.
# hMR = target: T2, hMR (Homo sapiens, UniProt P08235); assay: APRn selectivity: transactivation in HEK293T cells transiently expressing hMR; type: cell-based; settings: mean±SEM
# T2 construct: expressed in transfected cells; host or cells: HEK 293T
# T2 sequence (P08235 1-984): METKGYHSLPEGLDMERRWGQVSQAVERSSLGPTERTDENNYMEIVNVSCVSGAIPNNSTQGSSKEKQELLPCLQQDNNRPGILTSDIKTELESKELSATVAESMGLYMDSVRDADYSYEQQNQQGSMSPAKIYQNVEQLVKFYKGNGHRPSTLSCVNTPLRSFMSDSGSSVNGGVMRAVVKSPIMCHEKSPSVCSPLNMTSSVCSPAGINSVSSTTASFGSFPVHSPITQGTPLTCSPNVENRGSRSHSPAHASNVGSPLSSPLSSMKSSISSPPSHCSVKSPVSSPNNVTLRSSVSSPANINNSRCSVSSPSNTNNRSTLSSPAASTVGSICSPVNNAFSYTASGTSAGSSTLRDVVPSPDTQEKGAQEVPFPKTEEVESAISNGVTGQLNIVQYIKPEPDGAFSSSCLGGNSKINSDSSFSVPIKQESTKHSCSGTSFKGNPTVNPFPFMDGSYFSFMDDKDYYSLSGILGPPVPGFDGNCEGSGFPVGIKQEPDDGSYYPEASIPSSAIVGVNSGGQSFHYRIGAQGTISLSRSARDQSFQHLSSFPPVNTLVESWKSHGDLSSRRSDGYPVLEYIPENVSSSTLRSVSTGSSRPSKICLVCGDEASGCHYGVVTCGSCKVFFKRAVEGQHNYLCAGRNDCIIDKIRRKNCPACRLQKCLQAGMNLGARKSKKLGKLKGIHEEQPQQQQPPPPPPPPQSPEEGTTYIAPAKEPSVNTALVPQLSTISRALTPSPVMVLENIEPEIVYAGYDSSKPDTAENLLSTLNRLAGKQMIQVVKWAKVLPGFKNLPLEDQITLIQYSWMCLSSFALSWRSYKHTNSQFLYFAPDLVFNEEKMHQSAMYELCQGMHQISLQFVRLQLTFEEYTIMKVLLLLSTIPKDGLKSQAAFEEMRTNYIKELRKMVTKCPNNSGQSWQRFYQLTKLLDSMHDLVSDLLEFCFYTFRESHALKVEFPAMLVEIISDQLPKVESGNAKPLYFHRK
# Protocol: as §1, §2, §3
# hGR = target: T3, hGR (Homo sapiens, UniProt P04150); assay: APRn selectivity: transactivation in HEK293T cells transiently expressing hGR; type: cell-based; settings: HEK293T transiently expressing hGR, mean±SEM
# T3 construct: expressed in transfected cells; host or cells: HEK 293T
# T3 sequence (P04150 1-777): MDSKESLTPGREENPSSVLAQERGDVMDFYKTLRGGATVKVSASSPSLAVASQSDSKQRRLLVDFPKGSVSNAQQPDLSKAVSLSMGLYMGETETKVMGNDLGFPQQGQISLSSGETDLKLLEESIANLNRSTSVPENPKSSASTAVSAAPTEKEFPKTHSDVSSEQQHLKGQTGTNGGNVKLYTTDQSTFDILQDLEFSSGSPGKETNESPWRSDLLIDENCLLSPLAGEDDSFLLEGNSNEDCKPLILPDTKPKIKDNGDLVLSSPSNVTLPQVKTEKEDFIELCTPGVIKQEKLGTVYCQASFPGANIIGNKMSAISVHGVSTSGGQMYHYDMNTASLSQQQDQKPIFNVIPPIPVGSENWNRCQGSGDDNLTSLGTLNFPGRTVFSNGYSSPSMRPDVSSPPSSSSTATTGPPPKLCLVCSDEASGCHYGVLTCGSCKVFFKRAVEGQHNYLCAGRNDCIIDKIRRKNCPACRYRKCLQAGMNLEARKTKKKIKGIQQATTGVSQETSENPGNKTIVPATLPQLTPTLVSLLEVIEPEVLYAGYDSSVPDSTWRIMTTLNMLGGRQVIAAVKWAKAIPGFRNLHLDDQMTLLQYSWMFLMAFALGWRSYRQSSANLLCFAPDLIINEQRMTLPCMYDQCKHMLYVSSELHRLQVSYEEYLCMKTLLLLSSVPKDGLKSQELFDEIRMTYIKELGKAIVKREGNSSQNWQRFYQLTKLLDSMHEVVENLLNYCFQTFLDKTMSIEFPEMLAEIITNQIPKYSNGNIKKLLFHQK
# Protocol: as §1, §2, §3
# hPRB = target: T4, hPRB (Homo sapiens, UniProt P06401); assay: PR transactivation assay (GRE2-Luc) in HEK293T cells transiently expressing hPRB; type: cell-based; set-up: expressed in transfected cells; host or cells: HEK 293T; settings: series 1 (no C3 substituent), HEK293T, APRn 1 μM, FIG. 1
# T4 sequence (P06401 1-933): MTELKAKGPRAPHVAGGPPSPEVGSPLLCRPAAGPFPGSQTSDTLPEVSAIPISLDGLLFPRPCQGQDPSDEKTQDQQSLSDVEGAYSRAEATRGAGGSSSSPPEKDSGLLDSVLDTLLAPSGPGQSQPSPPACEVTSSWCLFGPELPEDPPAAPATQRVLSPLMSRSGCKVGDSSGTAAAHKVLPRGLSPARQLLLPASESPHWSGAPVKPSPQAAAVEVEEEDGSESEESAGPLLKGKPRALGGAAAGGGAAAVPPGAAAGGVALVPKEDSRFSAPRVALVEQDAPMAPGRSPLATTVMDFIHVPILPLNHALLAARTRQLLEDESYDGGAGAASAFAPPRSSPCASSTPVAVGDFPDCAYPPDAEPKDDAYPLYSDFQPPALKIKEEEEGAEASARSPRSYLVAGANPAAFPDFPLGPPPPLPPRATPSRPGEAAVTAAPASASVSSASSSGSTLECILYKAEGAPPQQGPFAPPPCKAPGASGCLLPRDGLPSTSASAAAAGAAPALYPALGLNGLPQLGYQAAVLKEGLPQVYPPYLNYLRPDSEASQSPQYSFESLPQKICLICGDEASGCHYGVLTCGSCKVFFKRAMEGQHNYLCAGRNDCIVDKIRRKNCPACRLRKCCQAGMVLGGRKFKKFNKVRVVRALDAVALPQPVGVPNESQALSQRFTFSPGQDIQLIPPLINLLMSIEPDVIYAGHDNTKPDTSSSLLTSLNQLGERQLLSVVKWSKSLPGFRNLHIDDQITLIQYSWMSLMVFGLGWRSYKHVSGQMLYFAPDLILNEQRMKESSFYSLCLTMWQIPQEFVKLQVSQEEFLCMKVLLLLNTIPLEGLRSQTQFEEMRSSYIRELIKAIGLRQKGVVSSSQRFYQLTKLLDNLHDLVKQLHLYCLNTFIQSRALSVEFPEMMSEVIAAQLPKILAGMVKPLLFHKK
# Protocol: PR Transactivation Assays in HEK 293T.
# HEK 293T cells were routinely cultured in a high-glucose DMEM medium (Invitrogene, Cergy Pontoise, France), 20 mM HEPES, 2 mM glutamine, 1× non essential amino acids, 100 U/mL penicillin and 100 μg/mL streptomycin supplemented with 10% foetal calf serum (FCS) in a humidified atmosphere at 37° C. and with 5% CO2. One day before transfection, the cells were seeded at 3×10^6 cells/[…] diameter culture Petri dish and cultured overnight in the same medium. Six hours before transfection, the FCS supplemented medium was replaced by the same medium supplemented with 10% dextran-charcoal treated FCS. Transfections were carried out using the calcium phosphate precipitation method. The calcium phosphate precipitate was prepared with 0.5 μg pchPRB (Petit-Topin, et al Mol Pharmacol, 2009, 75, 1317), 7 μg reporter vector (GRE2-Luc from A. Biola-Vidamment and M. Pallardy) and 1 μg of pcβgal for an internal transfection control, in 1 mL 140 mM NaCl, 0.75 mM Na2HPO4, 25 mM HEPES, 125 mM CaCl2 pH 7.05 and added to the cells 30 minutes later. After 16 h incubation, the transfected cells were washed with PBS containing 2.5 mM EDTA, trypsinized and pooled. The transfected cells were replated in 24-well plates (100.000 transfected cells/well). […] Cells were lysed in 300 μl PBS 1×, 25 mM glycylglycine, 4 mM EDTA, 15% glycerol, 1% triton X-100, 15 mM MgSO4, pH 7.8 supplemented with 2 mM β-mercaptoethanol. The luciferase activities were quantified by using a Mithras LB940 reader microplates (Berthold).
# The APRn “agonist efficacy” was determined from the following formula:
# Agonist efficacy=[luciferase activity]1/[luciferase activity]2×100
# The APRn “antagonist efficacy” was calculated from the following formula:
# Antagonist efficacy=100−[luciferase activity]1/[luciferase activity]2×100
# The results are the mean±SEM of three to five independent experiments.
# All the synthesized APRn were classified in 4 series depending on the nature of their C3 substituent (R1/R′1 groups). The first one (series 1) includes APRn with no C3 substituent (R1═R′1═H) whereas series 2, 3 and 4 are related to APRn bearing a methoxyl (R1═OMe), a hydroxyl (R1═OH) and a fluorine atom (R1═F), respectively. The agonist/antagonist activities of APRn were determined either in human HEK293T cells transiently expressing hPRB or in human MDA-MB-231 iPRAB cells conditionally expressing hPRB, by using a luciferase reporter gene placed under the control of a glucocorticoid response element (GRE2-Luc). The APRn “agonist efficacy” was determined from the luciferase activity measured in the presence of APRn (1 μM). […] The “agonist efficacy” and “antagonist efficacy” are expressed as defined in the biological protocols section.
Structure (SMILES),agonist efficacy towards hAR (in words) (hAR),"selectivity for hPR vs hAR, hGR and hMR (in words) (hAR; conclusion from hAR, hGR and hMR transactivation assays)",melting point,MR Antagonist efficacy (%) (hMR; aldosterone 10^−9 M),MR Agonist efficacy (%) (hMR),GR Antagonist efficacy (%) (hGR; dexamethasone 10^−9 M),"Emax (hGR; HEK-293T, read-out: GR Agonist efficacy (%))",hPRB agonist/antagonist character (in words) (hPRB)
"CC(=O)[C@H]1CC[C@H]2[C@@H]3CC[C@H]4C[C@@H](F)CC[C@]4(C)[C@H]3CC[C@]12C [APR-17, 3β-Fluoro-5α-pregnan-20-one]",low agonist efficacy,selective hPR antagonists,154 to 155 °C,,,,,
"CC#C[C@]1(O)CCC2C3CC=C4C[C@@H](F)CC[C@]4(C)C3CC[C@@]21C (stereo partly drawn) [APR-44, 31-Fluoro-17α-(1-propynyl)androst-5-en-17β-ol]",,,136 to 137 °C,1.6 ± 5.5%,0.47 ± 0.10%,2.0 ± 2.8%,0.2 ± 0.1%,
"CC(=O)O[C@H]1CCC2C3CC=C4C=CCC[C@@H]4C3CC[C@@]21C (stereo partly drawn) [APR-49, 17β-Acetoxy-19-nor-androst-3,5-diene]",high potent hAR agonists,,94 to 95 °C,,,,,full antagonists
